Reference: PubChem BioAssay (NCI)
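Step 1: Grow cells in 96-well plates. Step 2: Expose to compound for 48 hours at 5 concentrations. Step 3: Interpolate endpoints linearly; if unreached, use highest concentration. TGI: total growth inhibition.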

Tests used:
Assay in all cases: NCI-60 cell line screen, 48 h
[1] = system: 786-0 renal
[2] = system: A498 renal
[3] = system: A549 NSCLC
[4] = system: ACHN renal
[5] = system: BT-549 breast
[6] = system: CAKI-1 renal
[7] = system: COLO 205 colon
[8] = system: DU-145 prostate
[9] = system: EKVX NSCLC
[10] = system: HCC-2998 colon
[11] = system: HCT-116 colon
[12] = system: HCT-15 colon
[13] = system: HL-60(TB) leukemia
[14] = system: HOP-62 NSCLC
[15] = system: HOP-92 NSCLC
[16] = system: HS 578T breast
[17] = system: HT29 colon
[18] = system: IGROV1 ovarian
[19] = system: K-562 leukemia
[20] = system: KM12 colon
[21] = system: LOX IMVI melanoma
[22] = system: M14 melanoma
[23] = system: MALME-3M melanoma
[24] = system: MCF7 breast
[25] = system: MDA-MB-231 breast
[26] = system: MDA-MB-435
[27] = system: MDA-N
[28] = system: MOLT-4 leukemia
[29] = system: NCI-H226 lung
[30] = system: NCI-H23 lung
[31] = system: NCI-H460 lung
[32] = system: NCI-H522 lung
[33] = system: NCI/ADR-RES ovarian
[34] = system: OVCAR-3 ovarian
[35] = system: OVCAR-4 ovarian
[36] = system: OVCAR-5 ovarian
[37] = system: OVCAR-8 ovarian
[38] = system: PC-3 prostate
[39] = system: RPMI-8226 leukemia
[40] = system: RXF 393 renal
[41] = system: SF-268 CNS
[42] = system: SF-295 CNS
[43] = system: SF-539 CNS
[44] = system: SK-MEL-2 melanoma
[45] = system: SK-MEL-28 melanoma
[46] = system: SK-MEL-5 melanoma
[47] = system: SK-OV-3 ovarian
[48] = system: SN12C renal
[49] = system: SNB-19 CNS
[50] = system: SNB-75 CNS
[51] = system: SR leukemia
[52] = system: SW-620 colon
[53] = system: T-47D breast
[54] = system: TK-10 renal
[55] = system: U251 CNS
[56] = system: UACC-257 melanoma
[57] = system: UACC-62 melanoma
[58] = system: UO-31 renal
[59] = system: CCRF-CEM leukemia

SMILES: COCOc1cc(OCOC)cc(C(=O)Oc2ccccc2)c1
- TGI [1]: > 100 µM
- TGI [2]: > 100 µM
- TGI [3]: > 100 µM
- TGI [4]: > 100 µM
- TGI [5]: > 100 µM
- TGI [6]: > 100 µM
- TGI [7]: > 100 µM
- TGI [8]: > 100 µM
- TGI [9]: > 100 µM
- TGI [10]: > 100 µM
- TGI [11]: > 100 µM
- TGI [12]: > 100 µM
- TGI [13]: > 100 µM
- TGI [14]: > 100 µM
- TGI [15]: > 100 µM
- TGI [16]: > 100 µM
- TGI [17]: > 100 µM
- TGI [18]: > 100 µM
- TGI [19]: > 100 µM
- TGI [20]: > 100 µM
- TGI [21]: > 100 µM
- TGI [22]: > 100 µM
- TGI [23]: > 100 µM
- TGI [24]: > 100 µM
- TGI [25]: > 100 µM
- TGI [26]: > 100 µM
- TGI [27]: > 100 µM
- TGI [28]: > 100 µM
- TGI [29]: > 100 µM
- TGI [30]: > 100 µM
- TGI [31]: > 100 µM
- TGI [32]: > 100 µM
- TGI [33]: > 100 µM
- TGI [34]: > 100 µM
- TGI [35]: > 100 µM
- TGI [36]: > 100 µM
- TGI [37]: > 100 µM
- TGI [38]: > 100 µM
- TGI [39]: > 100 µM
- TGI [40]: > 100 µM
- TGI [41]: > 100 µM
- TGI [42]: > 100 µM
- TGI [43]: > 100 µM
- TGI [44]: > 100 µM
- TGI [45]: > 100 µM
- TGI [46]: > 100 µM
- TGI [47]: > 100 µM
- TGI [48]: > 100 µM
- TGI [49]: > 100 µM
- TGI [50]: > 100 µM
- TGI [51]: > 100 µM
- TGI [52]: > 100 µM
- TGI [53]: > 100 µM
- TGI [54]: > 100 µM
- TGI [55]: > 100 µM
- TGI [56]: > 100 µM
- TGI [57]: > 100 µM
- TGI [58]: > 100 µM

SMILES: CC#CC#C/C=C1/O[C@]2(CCC(OC(=O)CC(C)C)CO2)[C@@H]2O[C@H]12 (some centres not stated)
- TGI [1]: 49.3 µM
- TGI [2]: > 100 µM
- TGI [3]: > 100 µM
- TGI [4]: 44.7 µM
- TGI [5]: 56.3 µM
- TGI [6]: 34.7 µM
- TGI [59]: 27.5 µM
- TGI [8]: > 100 µM
- TGI [9]: 84.3 µM
- TGI [10]: 37.5 µM
- TGI [11]: 33.3 µM
- TGI [12]: 53.1 µM
- TGI [13]: 42.9 µM
- TGI [14]: > 100 µM
- TGI [15]: 66 µM
- TGI [16]: > 100 µM
- TGI [17]: 35.4 µM
- TGI [18]: > 100 µM
- TGI [19]: > 100 µM
- TGI [20]: > 100 µM
- TGI [21]: 35.9 µM
- TGI [22]: 47.7 µM
- TGI [23]: 47.7 µM
- TGI [24]: > 100 µM
- TGI [25]: 62.7 µM
- TGI [26]: 60.4 µM
- TGI [27]: 54.3 µM
- TGI [28]: 54.6 µM
- TGI [30]: 60 µM
- TGI [31]: > 100 µM
- TGI [32]: 37.4 µM
- TGI [33]: 64.4 µM
- TGI [34]: 52.3 µM
- TGI [35]: > 100 µM
- TGI [36]: 72.9 µM
- TGI [37]: > 100 µM
- TGI [38]: 72.5 µM
- TGI [39]: 50.3 µM
- TGI [40]: 42.2 µM
- TGI [41]: 54.1 µM
- TGI [44]: 52.5 µM
- TGI [47]: > 100 µM
- TGI [48]: 41.2 µM
- TGI [49]: > 100 µM
- TGI [50]: > 100 µM
- TGI [51]: > 100 µM
- TGI [52]: 43.7 µM
- TGI [53]: 48.3 µM
- TGI [54]: 61.3 µM
- TGI [55]: 54.6 µM
- TGI [56]: > 100 µM
- TGI [57]: 66.6 µM
- TGI [58]: 36.5 µM

SMILES: CN(C)C1C(=O)C(C(=O)NCN2CCCC2)=C(O)C2(O)C(=O)C3=C(O)c4c(O)cccc4C(C)(O)C3CC12 (configuration not stated)
- TGI [1]: > 100 µM
- TGI [2]: > 100 µM
- TGI [3]: > 100 µM
- TGI [4]: > 100 µM
- TGI [5]: > 100 µM
- TGI [6]: > 100 µM
- TGI [59]: > 100 µM
- TGI [7]: > 100 µM
- TGI [8]: > 100 µM
- TGI [9]: > 100 µM
- TGI [11]: > 100 µM
- TGI [12]: > 100 µM
- TGI [13]: > 100 µM
- TGI [14]: > 100 µM
- TGI [15]: > 100 µM
- TGI [16]: > 100 µM
- TGI [17]: > 100 µM
- TGI [18]: > 100 µM
- TGI [19]: > 100 µM
- TGI [20]: > 100 µM
- TGI [21]: > 100 µM
- TGI [22]: > 100 µM
- TGI [23]: 48.7 µM
- TGI [24]: > 100 µM
- TGI [25]: > 100 µM
- TGI [26]: > 100 µM
- TGI [27]: > 100 µM
- TGI [28]: > 100 µM
- TGI [29]: > 100 µM
- TGI [30]: > 100 µM
- TGI [32]: > 100 µM
- TGI [33]: > 100 µM
- TGI [34]: > 100 µM
- TGI [35]: > 100 µM
- TGI [36]: > 100 µM
- TGI [37]: > 100 µM
- TGI [38]: > 100 µM
- TGI [39]: > 100 µM
- TGI [40]: > 100 µM
- TGI [41]: > 100 µM
- TGI [42]: > 100 µM
- TGI [44]: > 100 µM
- TGI [45]: > 100 µM
- TGI [46]: > 100 µM
- TGI [47]: > 100 µM
- TGI [48]: > 100 µM
- TGI [49]: > 100 µM
- TGI [50]: > 100 µM
- TGI [51]: > 100 µM
- TGI [52]: > 100 µM
- TGI [53]: > 100 µM
- TGI [54]: > 100 µM
- TGI [55]: > 100 µM
- TGI [56]: > 100 µM
- TGI [57]: > 100 µM
- TGI [58]: > 100 µM
